The values that follow come from publication PMC11249824 (Clinical and Translational Science, 2024).

The conditions of series [1]: attributed to sequestration by β‐cyclodextrin; cited from earlier work.
The format of series [2] is in vivo, healthy male subjects.
The next series can be described thus: Safety and tolerability. Type of series: in vivo, healthy male subjects. The conditions noted are these: for Abdominal pain, number of adverse events / Abdominal pain, number of subjects / Diarrhea, number of adverse events / Diarrhea, number of subjects / Headache, number of adverse events / Headache, number of subjects / Nausea, number of adverse events / Nausea, number of subjects / Number of different TEAEs / Number of subjects with at least one TEAE / Somnolence, number of adverse events / Somnolence, number of subjects / Total number of TEAEs: N = 16.

The conditions of series [3]: cited from earlier work.
For series [4] the following is noted: cited from earlier work. The source holds these as a separate data set.
The test system of another series is CYP3A4. The note with it: in vitro, preclinical observation; cited from earlier work.
In another series the test system is ACKR3/CXCR7. The note with it: cited from earlier work.
Where [5] appears, read: Treatment A: single oral 10 mg ACT‐1004‐1239 alone, fed, geometric mean (95% CI), N = 16.
[6] abbreviates: Treatment A (ACT‐1004‐1239 alone).
Where [7] appears, read: Treatment B2 (ACT‐1004‐1239 + itraconazole).
Where [8] appears, read: up to and including a dose of 200 mg.

Marks after values point to notes of the source that are not given here.

As for `O=C(Nc1ccc(OC(F)(F)Cl)cc1)c1cnc(N2CC[C@@H](O)C2)c(-c2ccn[nH]2)c1` [asciminib], the “decrease of exposure when given concomitantly with an itraconazole solution” value in series [1] is recorded as “approximately 50%”.

In the case of `O=C(N[C@H]1CCN(CC2CC2)C[C@@H]1C(=O)NC1(c2ncccn2)CC1)c1cc(-c2ccc(F)cc2F)on1` [ACT‐1004‐1239], in series [2] (setting [5]), the “AUC0−t” value was 300 (257, 352) ng * h/mL and the Cmax is reported as 25.6 (21.1, 31.0) ng/mL. Also, in series [2] (Treatment A: single oral 10 mg ACT‐1004‐1239 alone, fed, geometric mean (95% CI), n = 10), the “AUC0−inf” value is on record as 326 (279, 380) ^a ng * h/mL. The t max in series [2] (Treatment A: single oral 10 mg ACT‐1004‐1239 alone, fed, median (range), N = 16) is on record as 2.00 (0.5, 6.0) h. The “median of differences in t max (90% CI)” value in series [2] (Treatment B2 (with itraconazole) vs Treatment A (alone), Hodges‐Lehmann estimate) was 30 min. In addition, the “increase of exposure to ACT‐1004‐1239 with itraconazole versus alone” value in series [2] (concomitant multiple doses 200 mg itraconazole (CYP3A4 inhibition)) is “up to 2.9 fold”. Also, in “Safety and tolerability” (setting [6]), the “Abdominal pain, number of adverse events” value is given as 0 nAEs; the “Abdominal pain, number of subjects” value was 0 n (%); the “Diarrhea, number of adverse events” value is on record as 0 nAEs; the “Diarrhea, number of subjects” value is listed as 0 n (%). In “Safety and tolerability” (setting [6]), the “Headache, number of adverse events” value came out at 2 nAEs; the “Headache, number of subjects” value was 1 (6.3) n (%); the “Nausea, number of adverse events” value came to 2 nAEs; the “Nausea, number of subjects” value is reported as 2 (12.5) n (%). In addition, in “Safety and tolerability” (setting [6]), the “Number of different TEAEs” value was 3 nAEs; the “Number of subjects with at least one TEAE” value was 3 (18.8) n (%); the “Somnolence, number of adverse events” value amounted to 1 nAEs; the “Somnolence, number of subjects” value is 1 (6.3) n (%). Besides, the “Total number of TEAEs” value in the series “Safety and tolerability” (setting [6]) was 5 nAEs. For the same compound, in “Safety and tolerability” (setting [7]), the “Abdominal pain, number of adverse events” value is reported as 1 nAEs; the “Abdominal pain, number of subjects” value was 1 (6.3) n (%); the “Diarrhea, number of adverse events” value was 1 nAEs; the “Diarrhea, number of subjects” value is listed as 1 (6.3) n (%). In the series “Safety and tolerability” (setting [7]), the “Headache, number of adverse events” value was 1 nAEs; the “Headache, number of subjects” value is listed as 1 (6.3) n (%); the “Nausea, number of adverse events” value stood at 0 nAEs; the “Nausea, number of subjects” value is 0 n (%). In the series “Safety and tolerability” (setting [7]), the “Number of different TEAEs” value came to 3 nAEs; the “Number of subjects with at least one TEAE” value was 3 (18.8) n (%); the “Somnolence, number of adverse events” value amounted to 0 nAEs; the “Somnolence, number of subjects” value is 0 n (%). Moreover, the “Total number of TEAEs” value in the series “Safety and tolerability” (setting [7]) was 3 nAEs. The tolerability entry in “Safety and tolerability” (all treatments, 10 mg ACT‐1004‐1239 in absence and presence of itraconazole) is recorded as “well‐tolerated”. The “overall incidence of subjects with TEAEs” value in the series “Safety and tolerability” (in each treatment (A and B2)) is 18.8%. Further, the “effect of food on exposure” value in series [3] is “no effect of food”. The “dose dependence of exposure” value in series [3] (dose range 1–200 mg) is “dose‐proportional”. For the same compound, in series [3] (healthy subjects), the absolute bioavailability is recorded as 53% and the volume of distribution is listed as 183 L. In series [3] (setting [8]), the QTc liability entry is recorded as “without QTc liability”; the safety and tolerability entry is “safe and well‐tolerated”. The “contribution of elimination via M1 to drug's elimination” value in series [4] (humans, M1 plus A1 and A2) is recorded as “approximately 44%”. The “unchanged drug recovered in excreta” value in series [4] (oral 14C‐labeled ACT‐1004‐1239) was 15%. The “dependency of metabolism on CYP3A4” value in the series on CYP3A4 was 94%. Besides, in the series on ACKR3/CXCR7, the “CXCL12 plasma concentration (target engagement)” value is given as “dose‐dependent increase”.
